Our source for the Kh, Kc and Ki values is ChEMBL document CHEMBL1123451, “Enol lactone inhibitors of serine proteases. The effect of regiochemistry on the inactivation behavior of phenyl-substituted (halomethylene)tetra- and -dihydrofuranones and (halomethylene)tetrahydropyranones toward alpha-chymotrypsin: stable acyl enzyme intermediate” (J Med Chem, 1986).

Series [1] can be described thus: Hydrolysis rate constant of the compound. It counts as ADME.
A short description of series [2]: Catalytic rate constant of the compound. The format is ADME.
Series [3] has as its target T1, Chymotrypsinogen B (Homo sapiens, UniProt P17538). Kind of series: Binding constant alpha-chymotrypsin was determined by competitive inhibition assay with Suc-Ala-Ala-Pro-Phe-pNA as substrate.
Series [4] addresses T1, Chymotrypsinogen B. Put plainly: Binding constant alpha-chymotrypsin was determined by competitive inhibition assay with BTEE as substrate.

T1 sequence (P17538 34-164 limits assumed, other chains not shown): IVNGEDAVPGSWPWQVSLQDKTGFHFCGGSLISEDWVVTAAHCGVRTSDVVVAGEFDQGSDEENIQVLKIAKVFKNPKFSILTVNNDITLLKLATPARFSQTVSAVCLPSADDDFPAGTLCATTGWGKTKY
T1 sequence (P17538 167-263 limits assumed, other chains not shown): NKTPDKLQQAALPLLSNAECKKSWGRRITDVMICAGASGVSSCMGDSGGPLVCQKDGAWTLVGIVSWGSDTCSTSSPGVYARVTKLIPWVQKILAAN

In the case of `O=C1CC(c2ccccc2)/C(=C\I)O1` (stereo not drawn), the Kh in series [1] is 0.0021 min⁻¹.
For `O=C1C=C(c2ccccc2)/C(=C\I)O1`, the Kh in series [1] was 0.0015 min⁻¹.
Consider `O=C1CC(c2ccccc2)C/C(=C\I)O1` (stereo not drawn), for which the Kc in series [2] came out at 0.025 min⁻¹. Moreover, in series [1], the Kh came to 0.0068 min⁻¹. Further, the affinity on Chymotrypsinogen B [3], expressed as Ki, was 0.0053 µM.
As for `C=C1CC(c2ccccc2)CC(=O)O1` (stereo not drawn), the Kh in series [1] stood at 0.0015 min⁻¹.
In series [1], `O=C1CCC(c2ccccc2)/C(=C\I)O1` (stereo not drawn) returned a Kh of 0.004 min⁻¹. On Chymotrypsinogen B [4], the affinity, expressed as Ki, was 55 µM.

By Ki is commonly meant a measure of affinity in units of concentration, obtained from inhibition or displacement. Read a low Ki as a stronger hold on the target.
